# Laboratory results from ChEMBL document CHEMBL1201862, “PubChem BioAssay data set” (2004).
# Activity calls are given as the source filed them.
# Assays:
# [1] = Shn3 3'UTR reporter inhibitors, dose response, cell-based, Clone20 osteoblasts, firefly luciferase, cherry-picked (AID 624132); assay type: functional;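 also: firefly luciferase luminescence from reporter carrying the Shn3 3'UTR in osteoblasts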
# [2] = HepG2 cell cytotoxicity, dose response, cytotoxicity control for Shn3 inhibitor project, CellTiter-Glo, cherry-picked (AID 624134); assay type: functional, cell-based
# [3] = control 3'UTR Renilla luciferase suppression, dose response, counter-screen for Shn3 inhibitor project, cell-based, Clone20-Shn3RL, cherry-picked (AID 624133); assay type: functional
# Fatty acid synthase [4] = molecular target: T1, Fatty acid synthase (Homo sapiens, UniProt P49327); assay: FAS thioesterase domain inhibitors, dose response, biochemical, endpoint fluorescence intensity, uHTS hits (AID 624327); assay type: functional;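 also: fluorescence from hydrolysis of an O-methyl fluorescein acyl ester substrate by the enzyme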
# Fatty acid synthase [5] = molecular target: T1, Fatty acid synthase; assay: FAS thioesterase domain inhibitors, dose response, biochemical, kinetic fluorescence intensity (AID 624326); assay type: functional;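 also: rate of fluorescence rise from hydrolysis of a fluorogenic O-methyl fluorescein ester substrate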
# [6] = molecular target: T2, Polyadenylate-binding protein 1 (Homo sapiens, UniProt P11940); assay: PABP1 MLLE–PAM2 interaction inhibitors, dose response, miRNA deadenylation inhibitor project, biochemical, fluorescence polarization, Cy5-PAM2 peptide, secondary (AID 602260); assay type: functional; details: read-out: IC50_Mean
# [7] = molecular target: T2, Polyadenylate-binding protein 1; assay: PABP1 MLLE–PAM2 binding inhibitor potency, dose response, biochemical, fluorescence polarization, FITC-PAM2 peptide (AID 602259); assay type: functional; details: read-out: IC50_Mean
# [8] = growth suppression of PTEN-null colon cells, dose response, cell-based, HCT116 PTEN knockout (AID 1047); assay type: functional;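 also: HCT116 colon tumor cells with PTEN knocked out; cells exposed to compound for 60 hours before readout; potency for loss of cell viability measured by luminescence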
# [9] = growth suppression of beta-catenin-knockout colon cells, dose response, cell-based, HCT116, human colon tumor (AID 1045); assay type: functional;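 also: HCT116 colon tumor cells with beta catenin knocked out; cells exposed to compound for 60 hours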
# [10] = tested on: Streptococcus sp. 'group A'; assay: growth inhibition of control SK(-) GAS strain, dose response, counter-screen for streptokinase expression inhibitor project, luminescence, kanamycin, BacTiterGlo, confirmation (AID 1900); assay type: functional, organism-based
# Streptokinase A = molecular target: T3, Streptokinase A (Streptococcus pyogenes serotype M1, UniProt P10520); assay: S. pyogenes streptokinase expression inhibitors, potency, dose response, plasminogen activation absorbance, OD405 (AID 1914); assay type: functional, Streptococcus pyogenes M1 GAS;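 also: secreted streptokinase activity via plasminogen activation per viability signal from cell pellet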
# T3 sequence (P10520 whole entry): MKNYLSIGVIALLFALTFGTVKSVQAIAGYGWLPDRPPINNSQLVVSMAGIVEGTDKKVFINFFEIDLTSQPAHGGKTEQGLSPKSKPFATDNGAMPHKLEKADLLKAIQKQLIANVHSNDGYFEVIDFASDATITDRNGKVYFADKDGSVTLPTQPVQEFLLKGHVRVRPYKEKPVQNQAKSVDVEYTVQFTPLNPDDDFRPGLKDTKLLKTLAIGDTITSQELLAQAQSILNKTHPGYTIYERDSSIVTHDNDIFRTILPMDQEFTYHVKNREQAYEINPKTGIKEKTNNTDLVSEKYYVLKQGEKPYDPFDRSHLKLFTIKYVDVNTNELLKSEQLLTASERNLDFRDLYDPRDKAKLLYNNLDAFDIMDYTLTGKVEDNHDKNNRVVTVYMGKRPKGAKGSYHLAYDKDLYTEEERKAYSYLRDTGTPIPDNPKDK
# Streptococcus = assay: Group A Streptococcus viability loss, dose response, counter-screen for streptokinase expression inhibitor project, luminescence, BacTiterGlo (AID 1915); assay type: functional, organism-based;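 also: potency for reduction of bacterial viability or growth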
# Genome polyprotein = Genome polyprotein (dengue virus type 2, UniProt P29990); assay: Dengue-2 NS5 methyltransferase inhibitors, primary screen, biochemical, confirmation dose response (AID 588689); assay type: functional
# [11] = molecular target: Induced myeloid leukemia cell differentiation protein Mcl-1 (Homo sapiens, UniProt Q07820); assay type: functional
# INS1 = assay: beta cell apoptosis inhibitors, cytokine rescue, dose response, luminescence, retest (AID 449756); assay type: functional, cell-based; details: Rattus norvegicus;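 also: cell death triggered by IL-1 beta plus TNF-alpha plus IFN-gamma mixture; protective hits raise ATP signal compared with cytokine alone wells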
# [12] = molecular target: T4, Ubiquitin-conjugating enzyme E2 N (Homo sapiens, UniProt P61088); assay type: functional;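 also: Dose-response confirmation in a TR-FRET assay detecting UBC13-driven polyubiquitin chain formation, inhibition measured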
# T4 sequence (P61088 whole entry): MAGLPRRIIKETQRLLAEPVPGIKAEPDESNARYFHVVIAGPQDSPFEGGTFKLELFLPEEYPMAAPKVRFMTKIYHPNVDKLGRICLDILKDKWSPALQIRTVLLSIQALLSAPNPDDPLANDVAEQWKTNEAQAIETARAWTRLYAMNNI
# [13] = P. falciparum Dd2 growth inhibitors, dose response, SYBR Green, cherry-picked samples (AID 1159567); assay type: functional, cell-based
# [14] = intracellular Trypanosoma cruzi inhibitors in host cells – cell-based, plate reader, cherry-pick samples, set 3, dose response (AID 651818); assay type: functional;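 also: compounds incubated with infected cells for about four days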
# [15] = inhibitors of clade B AD8 Env fusion, dose response, cell-based, cherry-pick (AID 652062); assay type: functional;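 also: luciferase signal from cell-cell fusion driven by HIV-1 clade B AD8 Env; potency is for inhibitors of fusion seen as a drop in luminescence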
# T1 sequence (P49327 whole entry, the tested form may be a part): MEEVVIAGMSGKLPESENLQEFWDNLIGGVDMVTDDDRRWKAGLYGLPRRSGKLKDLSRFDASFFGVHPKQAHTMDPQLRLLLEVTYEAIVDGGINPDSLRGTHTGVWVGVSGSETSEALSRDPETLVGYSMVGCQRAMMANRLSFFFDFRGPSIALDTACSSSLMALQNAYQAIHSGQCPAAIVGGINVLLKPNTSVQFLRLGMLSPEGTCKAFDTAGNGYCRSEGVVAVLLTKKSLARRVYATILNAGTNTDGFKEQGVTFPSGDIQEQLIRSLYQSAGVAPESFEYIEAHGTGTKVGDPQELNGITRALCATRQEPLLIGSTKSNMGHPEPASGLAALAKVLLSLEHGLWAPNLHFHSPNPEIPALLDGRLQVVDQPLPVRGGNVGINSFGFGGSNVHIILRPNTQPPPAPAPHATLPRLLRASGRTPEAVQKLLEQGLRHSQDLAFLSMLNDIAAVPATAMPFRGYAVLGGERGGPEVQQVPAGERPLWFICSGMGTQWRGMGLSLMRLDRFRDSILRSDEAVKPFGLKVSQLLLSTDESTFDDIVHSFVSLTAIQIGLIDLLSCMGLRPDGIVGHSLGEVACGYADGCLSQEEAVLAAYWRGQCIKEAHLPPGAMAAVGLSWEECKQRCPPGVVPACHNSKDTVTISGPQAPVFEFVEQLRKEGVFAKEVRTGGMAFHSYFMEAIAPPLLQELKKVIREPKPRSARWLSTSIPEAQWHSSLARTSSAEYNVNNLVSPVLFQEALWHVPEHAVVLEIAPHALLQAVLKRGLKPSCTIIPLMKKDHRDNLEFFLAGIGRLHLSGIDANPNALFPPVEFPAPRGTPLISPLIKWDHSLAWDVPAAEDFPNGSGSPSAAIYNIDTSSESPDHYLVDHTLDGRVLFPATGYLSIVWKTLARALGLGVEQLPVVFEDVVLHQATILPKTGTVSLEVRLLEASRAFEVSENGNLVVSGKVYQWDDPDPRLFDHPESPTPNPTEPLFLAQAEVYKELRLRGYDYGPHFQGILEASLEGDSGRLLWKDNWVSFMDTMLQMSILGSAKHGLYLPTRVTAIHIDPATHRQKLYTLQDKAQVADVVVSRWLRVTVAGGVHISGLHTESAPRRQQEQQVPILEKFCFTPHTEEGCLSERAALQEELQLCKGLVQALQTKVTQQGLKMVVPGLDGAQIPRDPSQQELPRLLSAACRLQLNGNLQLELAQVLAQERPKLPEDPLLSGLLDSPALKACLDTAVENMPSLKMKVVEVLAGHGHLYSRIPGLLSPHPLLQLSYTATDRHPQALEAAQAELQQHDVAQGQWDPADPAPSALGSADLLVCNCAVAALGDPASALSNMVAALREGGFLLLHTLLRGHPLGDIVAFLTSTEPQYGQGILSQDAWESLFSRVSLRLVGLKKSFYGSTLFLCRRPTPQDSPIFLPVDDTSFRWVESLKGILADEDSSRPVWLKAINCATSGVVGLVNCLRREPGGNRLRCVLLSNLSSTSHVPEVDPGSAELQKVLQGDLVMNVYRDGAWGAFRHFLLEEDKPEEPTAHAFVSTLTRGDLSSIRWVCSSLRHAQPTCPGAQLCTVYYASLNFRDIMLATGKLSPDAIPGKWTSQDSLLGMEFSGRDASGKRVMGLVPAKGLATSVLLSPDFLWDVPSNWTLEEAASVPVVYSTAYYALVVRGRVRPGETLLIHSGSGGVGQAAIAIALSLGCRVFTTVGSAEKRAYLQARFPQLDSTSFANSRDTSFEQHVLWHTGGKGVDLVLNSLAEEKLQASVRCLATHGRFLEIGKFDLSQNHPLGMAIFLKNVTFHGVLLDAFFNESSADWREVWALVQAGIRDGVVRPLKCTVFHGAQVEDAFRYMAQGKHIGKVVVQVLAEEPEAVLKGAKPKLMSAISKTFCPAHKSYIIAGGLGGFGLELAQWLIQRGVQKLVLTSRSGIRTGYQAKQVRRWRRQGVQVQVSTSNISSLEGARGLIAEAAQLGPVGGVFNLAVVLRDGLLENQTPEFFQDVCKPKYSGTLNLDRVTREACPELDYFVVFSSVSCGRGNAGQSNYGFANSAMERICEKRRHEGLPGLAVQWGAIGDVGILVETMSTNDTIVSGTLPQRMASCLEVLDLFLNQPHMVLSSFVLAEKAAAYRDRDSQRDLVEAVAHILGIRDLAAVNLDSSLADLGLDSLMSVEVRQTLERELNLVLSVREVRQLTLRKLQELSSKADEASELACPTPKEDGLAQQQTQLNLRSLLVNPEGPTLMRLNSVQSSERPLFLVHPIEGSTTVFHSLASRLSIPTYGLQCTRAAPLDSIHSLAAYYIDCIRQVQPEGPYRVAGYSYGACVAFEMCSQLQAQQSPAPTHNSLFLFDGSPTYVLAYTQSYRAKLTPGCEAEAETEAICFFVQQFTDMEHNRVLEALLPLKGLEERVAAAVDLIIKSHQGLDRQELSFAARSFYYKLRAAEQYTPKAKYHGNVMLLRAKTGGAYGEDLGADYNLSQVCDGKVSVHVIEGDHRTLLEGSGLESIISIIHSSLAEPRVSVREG
# T2 sequence (P11940 whole entry): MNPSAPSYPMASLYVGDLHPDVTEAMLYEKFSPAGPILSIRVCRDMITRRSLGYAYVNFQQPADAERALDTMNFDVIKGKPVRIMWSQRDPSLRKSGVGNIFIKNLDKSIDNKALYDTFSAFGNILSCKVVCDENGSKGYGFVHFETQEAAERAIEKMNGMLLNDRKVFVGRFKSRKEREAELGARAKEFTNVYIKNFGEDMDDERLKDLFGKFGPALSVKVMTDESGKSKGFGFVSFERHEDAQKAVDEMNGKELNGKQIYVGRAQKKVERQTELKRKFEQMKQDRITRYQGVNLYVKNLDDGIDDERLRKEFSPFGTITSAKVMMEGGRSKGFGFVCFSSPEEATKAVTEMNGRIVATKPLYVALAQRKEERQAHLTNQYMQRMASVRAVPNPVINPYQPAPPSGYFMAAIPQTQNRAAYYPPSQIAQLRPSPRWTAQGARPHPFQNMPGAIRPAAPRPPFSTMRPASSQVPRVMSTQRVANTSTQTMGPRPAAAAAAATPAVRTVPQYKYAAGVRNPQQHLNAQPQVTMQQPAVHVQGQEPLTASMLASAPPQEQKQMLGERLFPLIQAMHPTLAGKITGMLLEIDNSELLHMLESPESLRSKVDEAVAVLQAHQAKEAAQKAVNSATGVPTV
# Chain of Genome polyprotein (P29990 2492-3391 limits assumed): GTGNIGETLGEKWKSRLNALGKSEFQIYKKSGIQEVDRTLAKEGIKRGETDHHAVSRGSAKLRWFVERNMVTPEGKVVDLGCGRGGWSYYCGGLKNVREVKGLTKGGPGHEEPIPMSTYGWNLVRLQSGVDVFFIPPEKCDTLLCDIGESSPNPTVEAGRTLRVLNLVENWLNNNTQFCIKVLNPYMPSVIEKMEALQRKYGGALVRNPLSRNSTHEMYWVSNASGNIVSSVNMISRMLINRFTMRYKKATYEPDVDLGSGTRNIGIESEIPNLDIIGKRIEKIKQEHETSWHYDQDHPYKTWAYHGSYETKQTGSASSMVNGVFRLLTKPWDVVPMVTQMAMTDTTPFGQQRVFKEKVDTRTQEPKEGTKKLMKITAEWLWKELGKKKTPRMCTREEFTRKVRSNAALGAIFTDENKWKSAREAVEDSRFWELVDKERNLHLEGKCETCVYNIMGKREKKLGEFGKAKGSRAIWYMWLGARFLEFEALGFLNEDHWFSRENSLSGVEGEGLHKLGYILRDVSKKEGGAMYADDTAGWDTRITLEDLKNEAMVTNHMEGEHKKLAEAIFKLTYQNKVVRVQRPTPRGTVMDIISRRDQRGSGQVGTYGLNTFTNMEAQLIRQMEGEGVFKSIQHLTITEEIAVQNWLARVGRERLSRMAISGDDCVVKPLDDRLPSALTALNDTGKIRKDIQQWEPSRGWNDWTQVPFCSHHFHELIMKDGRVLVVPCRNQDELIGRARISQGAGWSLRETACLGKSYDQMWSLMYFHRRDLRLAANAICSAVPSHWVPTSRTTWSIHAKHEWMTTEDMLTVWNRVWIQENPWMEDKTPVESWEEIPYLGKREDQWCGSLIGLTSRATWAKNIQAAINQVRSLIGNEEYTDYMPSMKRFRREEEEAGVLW
# Chain of Induced myeloid leukemia cell differentiation protein Mcl-1 (Q07820 whole entry): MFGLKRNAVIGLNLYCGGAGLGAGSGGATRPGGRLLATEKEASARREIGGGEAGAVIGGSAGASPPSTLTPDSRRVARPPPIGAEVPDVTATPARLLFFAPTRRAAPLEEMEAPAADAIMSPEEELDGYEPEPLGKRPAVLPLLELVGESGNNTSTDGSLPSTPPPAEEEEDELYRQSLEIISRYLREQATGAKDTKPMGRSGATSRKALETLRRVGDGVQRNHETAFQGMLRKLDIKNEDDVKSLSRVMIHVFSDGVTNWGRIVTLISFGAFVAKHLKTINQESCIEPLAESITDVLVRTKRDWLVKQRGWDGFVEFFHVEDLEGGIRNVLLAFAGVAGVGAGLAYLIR
compound,measurement,setting,value
O=C(Nc1ccc(F)c(F)c1)c1ccc(F)c(S(=O)(=O)N2CCC3(CC2)OCCO3)c1,AC50,[1],12.2 µM (active)
same,AC50,[2],42.3 µM (active)
same,AC50,[3],11.2 µM (active)
COc1cccc(NC(C)C(=O)Nc2cc([N+](=O)[O-])ccc2Cl)c1 (stereo not drawn),IC50,Fatty acid synthase [4],9.92 µM (active)
same,IC50,Fatty acid synthase [5],12.4 µM (active)
O=C(c1nc2ccccn2c1CN1CCCC(O)C1)N1CCN(C2CCCCC2)CC1 (stereo not drawn),IC50,[6],> 66 µM (inactive)
same,IC50,[7],> 66 µM (inactive)
CC(C)(C)c1ccc(OCCC(=O)OCC(=O)N2c3ccccc3NC(=O)C2(C)C)cc1,IC50,Fatty acid synthase [4],11.2 µM (active)
same,IC50,Fatty acid synthase [5],4.48 µM (active)
O=C(/C=C/c1cccc([N+](=O)[O-])c1)NCCSCc1ccc(Cl)cc1,IC50,Fatty acid synthase [4],10.2 µM (active)
same,IC50,Fatty acid synthase [5],11.6 µM (active)
Cc1c(C(=O)NC(=S)Nc2ccc3c4c(cccc24)CC3)cccc1[N+](=O)[O-],IC50,[6],> 66 µM (inactive)
same,IC50,[7],> 66 µM (inactive)
COc1ccccc1/C=C(\NC(=O)c1ccc(OC)c(OC)c1)C(=O)Nc1cc([N+](=O)[O-])ccc1C,EC50,[8],43.6 µM (active)
same,EC50,[9],44.4 µM (active)
same,IC50,Fatty acid synthase [4],2.16 µM (active)
same,IC50,Fatty acid synthase [5],3.48 µM (active)
COCCNC(=O)c1c(NC(=O)c2ccco2)n(Cc2ccccc2)c2nc3ccccc3nc12,EC50,[10],12.8 µM (active)
same,EC50,Streptokinase A,> 150 µM (not active)
same,EC50,Streptococcus,> 150 µM (not active)
same,IC50,Genome polyprotein,> 100 µM (active)
O=C1NC(=S)N(c2ccccc2F)C(=O)/C1=C\c1cccs1,IC50,[11],2.07 µM (active)
same,IC50,Genome polyprotein,70.3 µM (active)
Cc1c(N2C(=O)/C(=C3\C(=O)N(CC(=O)O)c4ccccc43)SC2=S)c(=O)n(-c2ccccc2)n1C,IC50,[6],> 66 µM (inactive)
same,IC50,[7],> 66 µM (inactive)
Cc1ccc(C)c(NC(=O)CN(C)C(=O)c2cccc(S(=O)(=O)N3CCN(Cc4ccccc4)CC3)c2)c1,AC50,[1],3.5 µM (active)
same,AC50,[2],62.2 µM (active)
same,AC50,[3],5.74 µM (active)
COC(=O)Nc1ccc(SCC(=O)c2cccc([N+](=O)[O-])c2)cc1,IC50,[6],> 66 µM (inactive)
same,IC50,[7],> 66 µM (inactive)
Cc1ccc(S(=O)(=O)N2CCN(c3ncnc4ccccc34)CC2)cc1,AC50,INS1,4.61 µM (active)
same,AC50,[1],1.56 µM (active)
same,AC50,[2],4.03 µM (active)
same,AC50,[3],13.7 µM (active)
CCOCCCn1c(=N)c(S(=O)(=O)c2ccc(C)cc2)cc2c(=O)n3cc(C)ccc3nc21,IC50,[6],> 66 µM (inactive)
same,IC50,[7],53.1 µM (inactive)
COc1ccccc1C(=O)COC(=O)c1cc([N+](=O)[O-])ccc1N1CCOCC1,IC50,Fatty acid synthase [4],5.96 µM (active)
same,IC50,Fatty acid synthase [5],6.45 µM (active)
COc1ccc(C2=NN(C(=O)CSc3nc(=O)n4ccc(C)cc4n3)C(c3ccc(C)cc3)C2)cc1 (stereo not drawn),IC50,Fatty acid synthase [4],9.17 µM (active)
same,IC50,Fatty acid synthase [5],8.93 µM (active)
COc1cc(/C=C2/SC(NS(=O)(=O)Cc3ccccc3)=NC2=O)c([N+](=O)[O-])cc1OC,IC50,Genome polyprotein,76.1 µM (active)
COC(=O)C1=C(C)N(CC2CC2)C(NCc2cccc(C(F)(F)F)c2)=N[C@H]1c1ccccc1,IC50,[12],> 20 µM (inactive)
O=C(O)c1ccccc1SC1CC(=O)N(c2ccc3c(c2)OCO3)C1=O (stereo not drawn),IC50,[6],> 66 µM (inactive)
same,IC50,[7],> 66 µM (inactive)
Cc1ccc2c(c1)C(c1ccccc1)N(C(=O)c1cccc([N+](=O)[O-])c1)CC(=O)N2 (stereo not drawn),IC50,Fatty acid synthase [4],2.57 µM (active)
same,IC50,Fatty acid synthase [5],2.53 µM (active)
N#C/C(=C\c1cccs1)C(=O)c1ccccc1,IC50,Genome polyprotein,> 100 µM (active)
CCO[C@H]1OC(C(=O)NCc2ccccc2)=C[C@@H](C2CCCCC2)[C@@H]1CCCO,IC50,Fatty acid synthase [4],7.45 µM (active)
same,IC50,Fatty acid synthase [5],11.5 µM (active)
Cc1onc(-c2c(F)cccc2Cl)c1C(=O)NC(=S)NC1CCSC1=O (stereo not drawn),IC50,[6],> 66 µM (inactive)
same,IC50,[7],> 66 µM (inactive)
CC[C@@H](C)[C@@H]1CN([C@@H](CN2CCC[C@H]2CN2C(N)=NC[C@H]2C(C)C)C(C)C)C(=N)N1CCCC1CCCC1,IC50,[12],> 20 µM (inactive)
CCC[C@@H](CN1CCC[C@H]1CN1C(N)=NC[C@H]1C(C)C)N1C[C@@H]([C@H](C)CC)N(CCCC2CCCC2)C1=N,IC50,[12],> 20 µM (inactive)
CC(NC(=O)Cn1cc([N+](=O)[O-])cn1)c1ccc(C(C)(C)C)cc1 (stereo not drawn),IC50,Fatty acid synthase [4],4.06 µM (active)
same,IC50,Fatty acid synthase [5],4.54 µM (active)
COc1ccccc1N1CCN(C(=O)[C@H](C)NS(=O)(=O)c2ccc3c(c2)OCCCO3)CC1,IC50,[6],> 66 µM (inactive)
same,IC50,[7],> 66 µM (inactive)
C[C@@H]1CN([C@H](C)CO)C(=O)c2c(c3ccccc3n2C)-c2ccccc2CO[C@H]1CN(C)Cc1ccc(Oc2ccccc2)cc1,AC50,[13],3.03 µM (active)
C[C@@H]1CN([C@@H](C)CO)C(=O)c2cccc(NC(=O)CCCCCC(=O)Nc3ccccc3N)c2O[C@@H]1CN(C)S(=O)(=O)c1ccc(Cl)cc1,AC50,[14],3.26 µM (active)
C[C@@H]1CCCCO[C@@H](CN(C)C(=O)Nc2ccc(C(F)(F)F)cc2)[C@@H](C)CN([C@H](C)CO)C(=O)c2cc(NC(=O)Nc3ccc(C(F)(F)F)cc3)ccc2O1,AC50,[14],3.39 µM (active)
C[C@H]1CN([C@@H](C)CO)C(=O)c2cc(N(C)C)ccc2O[C@@H]1CN(C)C(=O)Nc1ccc(C(F)(F)F)cc1,AC50,[14],5.64 µM (active)
C[C@H]1CN([C@@H](C)CO)C(=O)c2cccc(NC(=O)NC3CCCCC3)c2O[C@H]1CN(C)Cc1ccc(C(=O)Nc2ccccc2N)cc1,AC50,[14],2.74 µM (active)
O=C(N/N=C/c1cc(I)cc(I)c1O)c1ccccn1,AC50,[14],1.12 µM (active)
COc1ccc(S(=O)(=O)N(C)C[C@H]2Oc3ccc(NS(=O)(=O)c4ccc(F)cc4)cc3CC(=O)N([C@H](C)CO)C[C@H]2C)cc1,AC50,[14],8.25 µM (active)
C[C@@H]1CN([C@H](C)CO)C(=O)Cc2cc(NC(=O)Nc3cccc4ccccc34)ccc2O[C@@H]1CN(C)Cc1ccc(Cl)c(Cl)c1,AC50,[14],2.53 µM (active)
C[C@@H]1CN([C@H](C)CO)C(=O)Cc2cc(NS(=O)(=O)c3ccc(F)cc3)ccc2O[C@H]1CN(C)Cc1ccc(C(=O)Nc2ccccc2N)cc1,AC50,[14],3.17 µM (active)
C[C@@H]1CN([C@H](C)CO)C(=O)c2cc(NC(=O)Cc3cn(C)c4ccccc34)ccc2O[C@@H]1CN(C)C(=O)Nc1ccc(C(F)(F)F)cc1,AC50,[14],3.26 µM (active)
COc1ccc(NC(=O)C2(C)CCN2Cc2ccccc2OC(F)F)cc1OC (stereo not drawn),AC50,[15],55.5 µM (active)
COc1ccc2c3c([nH]c2c1)[C@H](CO)N(Cc1cc(F)ccc1F)CC31CCN(C(C)=O)CC1,AC50,[13],3.39 µM (active)
COc1ccc2c3c(n(C)c2c1)[C@H](CO)N(C(=O)Nc1cccc(F)c1)CC31CN(C)C1,AC50,[13],5.83 µM (active)
CO[C@H]1CN(C)C(=O)c2ccc(NC(=O)c3nc4ccccc4s3)cc2OC[C@H](C)N(Cc2ccncc2)C[C@@H]1C,AC50,[13],5.3 µM (active)
CCCNC(=O)N1CC(=O)N2[C@@H](CO)[C@@H](c3ccc(C#Cc4cccc(OC)c4)cc3)[C@@H]2C1,AC50,[13],17 µM (active)
COc1ccc2c3c([nH]c2c1)[C@@H](CO)N(Cc1ccccc1F)CC31CN(C(=O)C2CCCC2)C1,AC50,[13],6.64 µM (active)
